Assay results reported in patent US9403804B2, “Inhibitors of c-fms kinase” (Janssen Pharmaceutica NV, priority 2006, dated 2016).

Columns and labels:
c-fms = c-fms (Homo sapiens (Human), UniProt P07333); test: Autophosphorylation, fluorescence polarization competition immunoassay for c-fms inhibition; type: biochemical; details: averages of three independent measurements; read-out: 1 nM c-fms; peptide Pi assay IC-50
Experimental: Fluorescence Polarization Competition Immunoassay
The assay buffer used was 100 mM 4-(2-hydroxyethyl)piperazine 1-ethanesulfonic acid (HEPES), pH 7.5, 1 mM 1,4-dithio-DL-threitol (DTT), 0.01% (v/v) Tween-20. Compounds were diluted in assay buffer containing 4% dimethylsulfoxide (DMSO) just prior to the assay. […] The kinase reaction was initiated by adding 2 μL of 5 mM ATP (Sigma) in assay buffer. […] Control reactions were ran in each plate: in positive and negative control wells, assay buffer (made 4% in DMSO) was substituted for the compound; in addition, positive control wells received 1.2 μL of 50 mM ethylenediaminetetraaceticacid (EDTA).
The plates were incubated at room temperature for 45 min. At the end of the incubation, the reaction was quenched with 1.2 μL of 50 mM EDTA (EDTA was not added to the positive control wells at this point; see above). Following a 5-min incubation, each well received 10 μL of a 1:1:3 mixture of anti-phosphotyrosine antibody, 10×, PTK green tracer, 10× (vortexed), FP dilution buffer, respectively (all from PanVera, cat. # P2837). The plate was covered, incubated for 30 min at room temperature and the fluorescence polarization was read on the Analyst. The instrument settings were: 485 nm excitation filter; 530 nm emission filter; Z height: middle of well; G factor: 0.93. […] The reported IC50 values are averages of three independent measurements.

[1] = system: mouse bone-marrow derived macrophages (BMDM); test: CSF-1-driven mouse bone-marrow derived macrophages proliferation assay (BrDU incorporation); type: cell-based; details: 30 hrs culture, read-out: mCSF driven proliferation BMDM (Mouse) IC-50
Experimental: CSF-1-Driven Mouse Bone-Marrow Derived Macrophages Assay
Macrophages are derived by culturing mouse bone marrow in alpha-MEM supplemented with 10% FCS and 50 ng/ml recombinant mouse CSF-1 in bacteriologic dishes. On the sixth day, macrophages are detached from dishes, washed, and resuspended to 0.05 million cells/ml in alpha-MEM containing 10% FCS. One hundred ul of cell suspension are distributed per well into 96 well culture plates. Wells are further supplemented with the addition of 50 ul media containing 15 ng/ml CSF-1, 3 uM Indomethacin, and 3× of a dilution series of test compounds. The cells are cultured for 30 hrs at 37 degrees and 5% CO2. During the final six hours, cultures are supplemented with an additional 30 ul of media containing a 1:500 dilution of bromodeoxyuridine (BrDU). At the end of the culture period, the plates are spun at 1000 RPM for 1 minute and 130 ul of media is removed with a pipet and replaced with 150 ul of fixative solution for 1 hour @ room temperature. The fixative is then dispelled from the plates and the plates allowed to air dry. Incorporation of BrDU into the fixed, dried cells is quantified using a specific ELISA.

c-fms, sequence (P07333 20-972): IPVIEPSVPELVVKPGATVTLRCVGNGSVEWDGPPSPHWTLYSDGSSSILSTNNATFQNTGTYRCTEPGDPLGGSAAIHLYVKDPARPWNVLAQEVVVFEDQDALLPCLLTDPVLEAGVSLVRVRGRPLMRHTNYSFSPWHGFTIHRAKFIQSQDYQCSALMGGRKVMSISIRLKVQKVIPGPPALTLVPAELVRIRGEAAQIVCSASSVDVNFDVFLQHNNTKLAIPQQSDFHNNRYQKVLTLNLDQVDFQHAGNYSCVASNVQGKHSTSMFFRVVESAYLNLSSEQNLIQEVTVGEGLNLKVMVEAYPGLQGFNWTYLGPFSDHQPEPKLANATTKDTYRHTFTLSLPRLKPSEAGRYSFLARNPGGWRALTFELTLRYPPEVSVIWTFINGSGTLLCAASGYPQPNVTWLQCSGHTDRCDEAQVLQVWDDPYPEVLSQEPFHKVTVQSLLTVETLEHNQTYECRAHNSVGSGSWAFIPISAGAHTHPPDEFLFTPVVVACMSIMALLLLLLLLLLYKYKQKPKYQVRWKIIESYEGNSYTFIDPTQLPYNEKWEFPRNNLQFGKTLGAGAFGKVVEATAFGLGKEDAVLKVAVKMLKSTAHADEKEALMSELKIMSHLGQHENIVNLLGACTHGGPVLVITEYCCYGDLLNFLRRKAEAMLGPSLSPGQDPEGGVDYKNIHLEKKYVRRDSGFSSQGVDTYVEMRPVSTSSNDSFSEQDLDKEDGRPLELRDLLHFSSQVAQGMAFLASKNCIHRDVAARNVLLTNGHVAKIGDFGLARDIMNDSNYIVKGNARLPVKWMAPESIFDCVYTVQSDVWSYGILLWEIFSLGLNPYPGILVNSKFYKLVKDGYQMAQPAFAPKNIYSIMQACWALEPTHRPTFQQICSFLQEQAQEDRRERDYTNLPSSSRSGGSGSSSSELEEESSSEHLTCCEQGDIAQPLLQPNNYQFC

SMILES | IC50 (c-fms) [nM] | IC50 [1] [nM]
CC1(C)CC=C(c2cc(C3(O)CCCCC3)ccc2NC(=O)c2nc(C#N)c[nH]2)CC1 [Example 1, 4-Cyano-1H-imidazole-2-carboxylic acid [2-(4,4-dimethyl-cyclohex-1-enyl)-4-(1-hydroxy-cyclohexyl)-phenyl]-amide] | 5.9 | 72
CC1(C)CC=C(c2cc([C@]3(O)CC[C@@H](C(=O)O)CC3)ccc2NC(=O)c2ncc(C#N)[nH]2)CC1 [Example 2, 4-[4-[(5-Cyano-1H-imidazole-2-carbonyl)-amino]-3-(4,4-dimethyl-cyclohex-1-enyl)-phenyl]-cis-4-hydroxy-cyclohexanecarboxylic acid] | 0.65 | 87
CC1(C)CC=C(c2cc(C3(O)CCCC3)ccc2NC(=O)c2nc(C#N)c[nH]2)CC1 [Example 3, 4-Cyano-1H-imidazole-2-carboxylic acid [2-(4,4-dimethyl-cyclohex-1-enyl)-4-(1-hydroxy-cyclopentyl)-phenyl]-amide] | 2.3 | 11.7
CC1(C)CC=C(c2cc(C3(C#N)CC3)ccc2NC(=O)c2nc(C#N)c[nH]2)CC1 [Example 4, 4-Cyano-1H-imidazole-2-carboxylic acid [4-(1-cyano-cyclopropyl)-2-(4,4-dimethyl-cyclohex-1-enyl)-phenyl]-amide] | 9.5 | 99
COCCNC1(c2ccc(NC(=O)c3nc(C#N)c[nH]3)c(C3=CCC(C)(C)CC3)c2)CCCCC1 [Example 43, 4-Cyano-1H-imidazole-2-carboxylic acid {2-(4,4-dimethyl-cyclohex-1-enyl)-4-[1-(2-methoxy-ethylamino)-cyclohexyl]-phenyl}-amide] | 2.9 | 111
CC1(C)CC=C(c2cc([C@]3(O)CC[C@@H](N4CCOCC4)CC3)ccc2NC(=O)c2nc(C#N)c[nH]2)CC1 [Example 44, 4-Cyano-1H-imidazole-2-carboxylic acid [2-(4,4-dimethyl-cyclohex-1-enyl)-4-(cis-1-hydroxy-cis-4-morpholin-4-yl-cyclohexyl)-phenyl]-amide] |  | 2.8
CC1(C)CC=C(c2cc([C@]3(O)CC[C@H](N4CCOCC4)CC3)ccc2NC(=O)c2nc(C#N)c[nH]2)CC1 [Example 45, 4-Cyano-1H-imidazole-2-carboxylic acid [2-(4,4-dimethyl-cyclohex-1-enyl)-4-(cis-1-hydroxy-trans-4-morpholin-4-yl-cyclohexyl)-phenyl]-amide] |  | 8.5

Further lines, with some results ahead:

IC50 (c-fms) [nM] | SMILES | IC50 [1] [nM]
20 | CC1(C)CC=C(c2cc(C3(C#N)CCCCC3)ccc2NC(=O)c2nc(C#N)c[nH]2)CC1 [Example 14, 4-Cyano-1H-imidazole-2-carboxylic acid [4-(1-cyano-cyclohexyl)-2-(4,4-dimethyl-cyclohex-1-enyl)-phenyl}-amide] | 150
1.9 | CC1(C)CC=C(c2cc(C3CCC(N4CCOCC4)CC3)ccc2NC(=O)c2nc(C#N)c[nH]2)CC1 (stereo not drawn) [Example 27, 4-Cyano-1H-imidazole-2-carboxylic acid [2-(4,4-dimethyl-cyclohex-1-enyl)-4-(4-morpholin-4-yl-cyclohexyl)-phenyl]-amide] | 16
0.99 | CN1CCN(C2CCC(c3ccc(NC(=O)c4nc(C#N)c[nH]4)c(C4=CCC(C)(C)CC4)c3)CC2)CC1 (stereo not drawn) [Example 28, 4-Cyano-1H-imidazole-2-carboxylic acid {2-(4,4-dimethyl-cyclohex-1-enyl)-4-[4-(4-methyl-piperazin-1-yl)-cyclohexyl]-phenyl}-amide] | 10.2
